The values below come from ChEMBL document CHEMBL3352019, “Recent developments in biological activities of chalcones: a mini review” (Eur J Med Chem, 2014).

The test system of one data set is MDA-MB-231. Description: Anticancer activity against human MDA-MB-231 cells. The class given is functional, cell-based.
The subject of data set [1] is Plasmodium falciparum. Description: Antimalarial activity against Plasmodium falciparum asexual blood stage forms. Type of data set: functional, organism-based.
The subject of data set [2] is Plasmodium falciparum. Description: Antimalarial activity against Plasmodium falciparum K1. Type of data set: functional, organism-based.
The next data set concerns Klebsiella aerogenes. Description: Antimicrobial activity against Enterobacter aerogenes by cup-plate agar diffusion method. Type of data set: functional. (In general: Agar diffusion results depend on both activity and mobility in agar.)
The test system of data set [3] is Staphylococcus aureus. Description: Antimicrobial activity against Staphylococcus aureus by cup-plate agar diffusion method. Type of data set: functional.
The subject of data set [4] is Aspergillus niger. Description: Antimicrobial activity against Aspergillus niger by cup-plate agar diffusion method. The class given is functional.
Another data set relates to Bacillus. Description: Antimicrobial activity against Bacillus coccus by cup-plate agar diffusion method. The class given is functional.
Data set [5] relates to Escherichia coli. The experiment in a line: Antimicrobial activity against Escherichia coli at 50 ug/mL. The class given is functional. The settings on record: read-out: IZ.
The subject of data set [6] is Bacillus subtilis. The experiment in a line: Antimicrobial activity against Bacillus subtilis at 50 ug/mL. Type of data set: functional. The settings on record: read-out: IZ.
The next data set deals with Bacillus pumilus. The experiment in a line: Antimicrobial activity against Bacillus pumilus at 50 ug/mL. Type of data set: functional. The settings on record: read-out: IZ.
For data set [7], the system named is Aspergillus niger. The experiment in a line: Antimicrobial activity against Aspergillus niger at 50 ug/mL. Type of data set: functional. The settings on record: read-out: IZ.
For data set [8], the system named is Bacillus subtilis. Description: Antimicrobial activity against Bacillus subtilis. Type of data set: functional.
Another data set concerns Penicillium chrysogenum. Description: Antimicrobial activity against Penicillium chrysogenum. The class given is functional.
Data set [9] has as its system Escherichia coli. Description: Antimicrobial activity against Escherichia coli. Type of data set: functional.
The test system of the next data set is Candida albicans. Description: Antimicrobial activity against Candida albicans. The class given is functional.
Data set [10] deals with Rattus norvegicus. The experiment in a line: Inhibition of inflammation in rat carrageenan-induced rat hind paw edema model. The class given is functional. Background: The carrageenan paw model is a standard test of acute inflammation.
Data set [11] has as its system Rattus norvegicus. The experiment in a line: Inhibition of inflammation in rat carrageenan-induced rat acute paw edema model. Type of data set: functional.
The subject of the next data set is Leishmania major. Description: Antiprotozoal activity against Leishmania major promastigote forms. Type of data set: functional, organism-based.
Data set [12] is described as follows: Antioxidant activity assessed as […] free radical scavenging activity. Type of data set: physicochemical.
Data set [13] has as its system Staphylococcus epidermidis. Description: Antimicrobial activity against Staphylococcus epidermidis. Type of data set: functional.
The next data set concerns Micrococcus luteus. Description: Antimicrobial activity against Micrococcus luteus. The class given is functional.
Data set [14] relates to Plasmodium falciparum. The experiment in a line: Antimalarial activity against CQ-resistant Plasmodium falciparum W2. The class given is functional, organism-based.
The species entered for data set [15] is Rattus norvegicus. Description: Inhibition of inflammation in rat cotton pellet-induced granuloma model. Type of data set: functional.
Data set [16] can be described thus: Anticancer activity against human HSC3 cells. The class given is functional, cell-based. The settings on record: HSC-3.
Data set [17] has as its system Staphylococcus aureus. Description: Antimicrobial activity against Staphylococcus aureus. The class given is functional.

The IC50 is the midpoint of a concentration-inhibition curve. Higher therefore signals lower potency. For orientation: MIC means the lowest concentration found to suppress growth. A low value points to inhibition by little substance.

Values after ≈ are worked out from the molar mass of the structure shown. Where only a bound is given, the exact number is not on record here.

The compound `O=C(/C=C/c1cccc(Br)c1)C1=Cc2cc(Cl)ccc2OC1` registered an IC50 in the data set on MDA-MB-231 of 7.02 µM.
In the data set with Plasmodium falciparum [1], `COc1ccc(/C=C/C(=O)c2ccc(-n3cnc4ccccc43)cc2)c(OC)c1` came in with an IC50 of 1.1 µg/mL (≈ 2.86 µM).
In the data set on Plasmodium falciparum [2], `COc1ccc(/C=C/C(=O)c2c(O)cccc2O)cc1` had an IC50 of 7.4 µM.
For `COc1ccc(C(=O)/C=C/c2c(-c3ccc(Br)cc3)nc3ccccn23)cc1`, the “inhibition zone (IZ)” value in the data set on Klebsiella aerogenes was determined as 19 mm.
With `O=C(/C=C/c1c(-c2ccc(Br)cc2)nc2ccccn12)c1ccc(Cl)cc1`, in the data set with Staphylococcus aureus [3], the “inhibition zone (IZ)” value came out at 19 mm.
For `Cc1ccc(C(=O)/C=C/c2c(-c3ccc(Br)cc3)nc3ccccn23)c(O)c1`, the “inhibition zone (IZ)” value with Aspergillus niger [4] is recorded as 20 mm; with Bacillus, 19 mm.
On to `COc1ccc(/C=C/C(=O)c2ccc(Cl)cc2Cl)cc1`, for which the results for the zone of inhibition at 50 µg/mL in the data set with Escherichia coli [5], with Bacillus subtilis [6] and with Bacillus pumilus were 15 mm, 13 mm and 8 mm, respectively.
For the compound `O=C(/C=C/c1cccc2ccccc12)c1ccc(Cl)cc1Cl`, the zone of inhibition at 50 µg/mL in the data set on Aspergillus niger [7] was determined as 12 mm.
In the case of `C[C@]12CC[C@H]3[C@@H](CC=C4CC(O)CC[C@@]43C)[C@@H]1CC[C@@H]2C(=O)/C=C/c1ccccc1` (some centres undefined), the “inhibition zone (IZ)” value with Bacillus subtilis [8] was determined as 19 mm; with Penicillium chrysogenum, 10 mm.
Consider `O=C(/C=C/c1ccccc1)N1N=C(c2ccc(Cl)cc2)CC1c1c2ccccc2cc2ccccc12` (centres undefined), for which the “inhibition zone (IZ)” value with Escherichia coli [9] came to 22 mm; in the data set on Candida albicans, 12 mm.
For `O=C(/C=C/c1ccccc1)c1nn(-c2ccccc2)c(-c2ccccc2)c1S(=O)(=O)c1ccccc1`, in the data set with Rattus norvegicus [10], the “inhibition (INH)” value came to 83.77%.
With `Cc1nc2ccc(Cl)cc2c(-c2ccccc2)c1C(=O)/C=C/c1ccco1`, the “inhibition (INH)” value in the data set with Rattus norvegicus [11] came out at 81.78%.
In turn, `COc1ccc2c(c1)C=C(C(=O)/C=C/c1ccc(Cl)c(Cl)c1)CO2` had an IC50 with Leishmania major (Leishmania major) of under 1 µM.
Still for that read-out and setting: next, `COc1ccc2c(c1)C=C(/C=C/C(=O)c1ccc(Cl)c(Cl)c1)CO2`: under 1 µM.
Regarding `C=CCc1ccc(/C=C/C(=O)c2cc(C)ccc2O)cc1O`, in [12], the “inhibition (INH)” value was 89.64%.
Regarding `COc1ccc(/C=C/C(=O)c2ccc(OC)c(CC=C(C)C)c2O)cc1`, the MIC (in the data set with Bacillus subtilis [8] (Bacillus subtilis); in data set [13]; in the data set with Micrococcus luteus) was 2000 µg/mL (≈ 5670 µM) each time.
`COc1ccc(/C=C/C(=O)c2ccccc2)cc1S(=O)(=O)N1CCOCC1` registered an IC50 with Plasmodium falciparum [14] of 2.06 µM.
In the case of `O=C(/C=C/c1ccc(F)cc1)c1ccc(O)cc1`, in the data set filed under Rattus norvegicus [15], the “inhibition (INH)” value amounted to 36.8%.
`COc1cc(O)c(C(=O)/C=C/c2ccccc2)c(OC)c1` [FLAVOKAWAIN B] came in with an IC50 in data set [16] of 4.9 µg/mL (≈ 17.2 µM).
In turn, `O=C(/C=C/c1ccc(O)cc1)c1ccc(O)cc1O` [ISOLIQUIRITIGENIN] returned an MIC against Staphylococcus aureus [17] of 15.6 µg/mL (≈ 60.9 µM).
`C=CC(C)(C)c1cc(/C=C/C(=O)c2ccc(O)cc2)c(OC)cc1O` [LICOAGROCHACONE A]: in the data set on Plasmodium falciparum [1], the IC50 was 1.43 µg/mL (≈ 4.23 µM).
As to MEGLUMINE ANTIMONATE, the IC50 in the data set with Leishmania major was under 82 µM.
